How the values were obtained:
Escherichia coli = experiment: Antimicrobial activity Escherichia coli at 2 mg/mL after 24 hrs by agar diffusion technique; format: functional; details: read-out: DIZ
Bacillus thuringiensis = experiment: Antimicrobial activity Bacillus thuringiensis at 2 mg/mL after 24 hrs by agar diffusion technique; format: functional; details: read-out: DIZ

Structure (SMILES) | zone of inhibition at 2000 µg/mL (Escherichia coli) | zone of inhibition at 2000 µg/mL (Bacillus thuringiensis)
O=C1C2C3c4ccccc4C(c4ccccc43)C2C(=O)N1c1ccccc1S (stereo not drawn) | 16 mm | 18 mm
O=C1C2C3c4ccccc4C(c4ccccc43)C2C(=O)N1c1ccccc1O (stereo not drawn) | 16 mm | 17 mm
CCOC(=O)c1c(N2C(=O)C3C4c5ccccc5C(c5ccccc54)C3C2=O)sc2c1CCCC2 (stereo not drawn) | 14 mm | 15 mm
O=C1C2C3c4ccccc4C(c4ccccc43)C2C(=O)N1C(CO)(CO)CO (stereo not drawn) | 14 mm | 15 mm
Cc1ccc2nc(N3C(=O)C4C5c6ccccc6C(c6ccccc65)C4C3=O)sc2c1 (stereo not drawn) | 29 mm | 26 mm
O=C1C2C3c4ccccc4C(c4ccccc43)C2C(=O)N1c1ccc(/N=N/c2ccccc2)cc1 (stereo not drawn) | 14 mm | 13 mm
Cc1ccc(/N=N/c2ccc(N3C(=O)C4C5c6ccccc6C(c6ccccc65)C4C3=O)cc2)cc1 (stereo not drawn) | 14 mm | 11 mm
Cc1ccc(S(=O)(=O)Oc2ccccc2N2C(=O)C3C4c5ccccc5C(c5ccccc54)C3C2=O)cc1 (stereo not drawn) | 18 mm | 15 mm
CC(=O)c1ccc(N2C(=O)C3C4c5ccccc5C(c5ccccc54)C3C2=O)cc1 (stereo not drawn) | 12 mm | 15 mm
O=C1/C(=N\c2ccccc2N2C(=O)C3C4c5ccccc5C(c5ccccc54)C3C2=O)C=C(Nc2ccccc2N2C(=O)C3C4c5ccccc5C(c5ccccc54)C3C2=O)c2ccccc21 (stereo not drawn) | 17 mm | 17 mm
O=C1C2C3c4ccccc4C(c4ccccc43)C2C(=O)N1c1ccccc1SSc1ccccc1N1C(=O)C2C3c4ccccc4C(c4ccccc43)C2C1=O (stereo not drawn) | 17 mm | 17 mm
O=C(c1ccc(N2C(=O)C3C4c5ccccc5C(c5ccccc54)C3C2=O)cc1)C(Br)Br (stereo not drawn) | 14 mm | 17 mm
O=C1C2C3c4ccccc4C(c4ccccc43)C2C(=O)N1c1nc[nH]n1 (stereo not drawn) | 15 mm | 17 mm
O=C(c1ccc(N2C(=O)C3C4c5ccccc5C(c5ccccc54)C3C2=O)cc1)c1nc2ccccc2[nH]1 (stereo not drawn) | 23 mm | 20 mm
COC(=O)n1c(C2C3c4ccccc4C(c4ccccc43)C2C(=O)O)nc2ccccc21 (stereo not drawn) | 13 mm | 17 mm
Nc1ccccc1N1C(=O)C2C3c4ccccc4C(c4ccccc43)C2C1=O (stereo not drawn) | 12 mm | 17 mm
CC(=O)Nc1ccccc1N1C(=O)C2C3c4ccccc4C(c4ccccc43)C2C1=O (stereo not drawn) | 16 mm | 18 mm
CC1(C)S[C@@H]2[C@H](NC(=O)[C@H](N)c3ccccc3)C(=O)N2[C@H]1C(=O)O [AMPICILLIN] | 19 mm | 18 mm
O=C(N[C@H](CO)[C@H](O)c1ccc([N+](=O)[O-])cc1)C(Cl)Cl [CHLORAMPHENICOL] | 20 mm | 23 mm
